Drawing on ChEMBL document CHEMBL4118113, “Lipophilic Efficiency as an Important Metric in Drug Design” (J Med Chem, 2018), this text covers IC50, logD and Ki for two compounds.

Data set [1] has as its target Aldo-keto reductase family 1 member B1 (Homo sapiens, UniProt P15121). In words: Inhibition of human ALR2.
Data set [2] in a line: Lipophilicity, log D of the compound. The format is physicochemical. Conditions: octanol/water.
Data set [3] concerns the target ALK tyrosine kinase receptor (Homo sapiens, UniProt Q9UM73, L1196M). In words: Inhibition of ALK L1196M mutant (unknown origin).

Chain of ALK tyrosine kinase receptor (Q9UM73 19-1620 L1196M limits assumed): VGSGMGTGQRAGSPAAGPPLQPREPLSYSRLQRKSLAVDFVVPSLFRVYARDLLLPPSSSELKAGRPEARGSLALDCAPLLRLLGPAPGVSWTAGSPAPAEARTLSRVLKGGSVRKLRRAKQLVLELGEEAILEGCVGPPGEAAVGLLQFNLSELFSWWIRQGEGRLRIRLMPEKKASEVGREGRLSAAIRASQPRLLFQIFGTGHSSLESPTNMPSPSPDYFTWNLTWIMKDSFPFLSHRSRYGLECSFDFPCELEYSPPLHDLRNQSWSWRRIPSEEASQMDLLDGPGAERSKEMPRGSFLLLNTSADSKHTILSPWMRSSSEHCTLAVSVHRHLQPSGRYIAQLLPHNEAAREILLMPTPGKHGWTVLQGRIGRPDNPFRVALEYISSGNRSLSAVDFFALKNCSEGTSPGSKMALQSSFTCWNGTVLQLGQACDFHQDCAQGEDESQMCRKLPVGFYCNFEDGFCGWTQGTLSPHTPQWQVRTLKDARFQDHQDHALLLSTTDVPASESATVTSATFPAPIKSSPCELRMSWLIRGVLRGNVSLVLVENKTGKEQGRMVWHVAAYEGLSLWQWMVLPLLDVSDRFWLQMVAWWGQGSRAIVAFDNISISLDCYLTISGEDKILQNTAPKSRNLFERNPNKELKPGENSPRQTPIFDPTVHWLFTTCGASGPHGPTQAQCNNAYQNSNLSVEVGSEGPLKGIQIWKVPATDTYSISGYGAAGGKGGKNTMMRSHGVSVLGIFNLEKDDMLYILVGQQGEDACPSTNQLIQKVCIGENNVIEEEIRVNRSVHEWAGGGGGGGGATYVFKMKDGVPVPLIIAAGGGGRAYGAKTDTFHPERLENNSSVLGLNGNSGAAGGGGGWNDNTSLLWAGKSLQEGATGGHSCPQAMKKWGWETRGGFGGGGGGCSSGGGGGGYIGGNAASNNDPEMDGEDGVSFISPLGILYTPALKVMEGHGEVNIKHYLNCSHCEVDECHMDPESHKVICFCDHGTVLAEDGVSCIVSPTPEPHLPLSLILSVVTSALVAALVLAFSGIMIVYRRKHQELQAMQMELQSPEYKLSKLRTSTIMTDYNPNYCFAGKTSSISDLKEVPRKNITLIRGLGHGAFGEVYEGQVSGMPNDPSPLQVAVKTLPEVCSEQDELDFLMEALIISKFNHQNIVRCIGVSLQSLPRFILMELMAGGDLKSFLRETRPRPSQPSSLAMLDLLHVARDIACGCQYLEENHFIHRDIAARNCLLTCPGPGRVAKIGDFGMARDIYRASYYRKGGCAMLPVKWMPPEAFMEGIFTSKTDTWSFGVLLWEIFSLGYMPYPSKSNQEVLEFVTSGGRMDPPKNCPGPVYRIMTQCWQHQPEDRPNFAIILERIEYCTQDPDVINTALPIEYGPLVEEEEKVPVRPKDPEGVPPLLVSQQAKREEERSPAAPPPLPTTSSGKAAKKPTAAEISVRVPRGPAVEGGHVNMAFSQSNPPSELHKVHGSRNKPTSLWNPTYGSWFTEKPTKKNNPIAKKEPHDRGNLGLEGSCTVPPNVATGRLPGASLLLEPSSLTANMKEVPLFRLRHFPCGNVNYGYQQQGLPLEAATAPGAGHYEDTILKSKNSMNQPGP

Broadly, the IC50 is the concentration that gives 50% inhibition. Read a high IC50 as weaker potency. As for `O=C(O)COc1cc(Cl)ccc1C(=O)NCc1ccc(Br)cc1`, in data set [1], the IC50 is 550 nM. One may read the logD as the decadic logarithm of the distribution of all forms, ionised or not, between an organic phase and buffer at a given pH. Read a high logD as a more lipophilic compound. One may read the Ki as the equilibrium dissociation constant of an inhibitor or competing ligand from its target. With `C[C@H]1Oc2cc(cnc2N)-c2c(nn(C)c2C#N)CN(C)C(=O)c2ccccc21`, the logD in data set [2] turned out to be 2.2. Further, the Ki in data set [3] was found to be 4 nM.
